Active and inactive are the calls of the source. No rule for the calls is given here.

The test system of this data set is rodent carcinogenicity bioassays, tumor incidence. Put plainly: CCRIS carcinogenicity studies. The method, boiled down:
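NCI-built, expert-reviewed records of carcinogenicity and related test outcomes (mutagenicity, tumor promotion/inhibition) compiled from published and report sources, historical span 1985-2011, not updated.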

For the compound `O=[As]O`, the carcinogen call is, setting by setting: (Species: Mouse, Strain/Sex: C3H/10 pregnant dams/group, 25 male and 25 female offspring per group assigned at 4 wks of age, Route: Oral, Dose: 0, 42.5, 85 ppm in drinking water of dams, offspring followed for 90 wks, Tumor Site: Type of Lesion: Hepatocellular carcinoma in offspring) “active; positive”; (Species: Mouse, Strain/Sex: C3H/Female offspring, Route: Oral, Dose: 0, 85 ppm (in drinking water of dam) in utero) “inactive; negative”; (Species: Mouse, Strain/Sex: C3H/Female offspring, Route: Oral, Dose: 0, 85 ppm in drinking water post pubescence (PND 56) to 365 days) “inactive; negative (hyperplasia only, no tumors)”; (Species: Mouse, Strain/Sex: C3H/Female offspring, Route: Oral, Dose: 0, 85 ppm in drinking water prior to pubescence (PND 21) to 365 days) “inactive; negative (hyperplasia only, no increase in tumors)”; (Species: Mouse, Strain/Sex: C3H/Female offspring, Route: Oral, Dose: 0, 85 ppm in utero and in drinking water to 365 days) “inactive; negative”; (Species: Mouse, Strain/Sex: C3H/HeNCr F344/ Male and female (25-35/Group as offspring of 10 dams per exposure level), Route: Drinking water, Dose: 0, 42.5, 85 ppm ad lib on gestation days 8-18, study duration for offspring 90 wks, Tumor Site: Type of Lesion: Male offspring: Liver: hepatocellular carcinoma (statistically significant increase in incidence and multiplicity), Adre) “active; positive”. Moreover, the carcinogen call was “inactive; negative” (Species: Mouse, Strain/Sex: C3H/Male offspring, Route: Oral, Dose: 0, 85 ppm (in drinking water of dam) in utero); “inactive; negative (decreased incidence of spontaneous tumors)” (Species: Mouse, Strain/Sex: C3H/Male offspring, Route: Oral, Dose: 0, 85 ppm in drinking water post pubescence (PND 56) to 365 days); “inactive; negative (decreased incidence of spontaneous tumors)” (Species: Mouse, Strain/Sex: C3H/Male offspring, Route: Oral, Dose: 0, 85 ppm in drinking water prior to pubescence (PND 21) to 365 days); “active; positive” (Species: Mouse, Strain/Sex: C3H/Male offspring, Route: Oral, Dose: 0, 85 ppm in utero and in drinking water to 365 days, Tumor Site: Type of Lesion: Liver: adenoma and carcinoma (30%, 0%)).
On to `CCOS(C)(=O)=O`, for which the carcinogen call runs as follows: (Species: MOUSE, Route: INTRAPERITONEAL, Tumor Site: Type of Lesion: LUNG, KIDNEY) “active; positive”; (Species: MOUSE, Route: SUBCUTANEOUS, Tumor Site: Type of Lesion: LUNG) “active; positive”; (Species: MOUSE, Strain/Sex: ICR/FEMALE, Route: SUBCUTANEOUS, Dose: 0, 20 UMOL/MOUSE IN TRIOCTANOIN INTO LEFT FLANK, 1/WK FOR 52 WK (STUDY DURATION: 450 D), Tumor Site: Type of Lesion: THYMUS GLAND: LYMPHOMA, LUNG: ADENOMA) “active; positive”; (Species: RAT, Route: INTRAPERITONEAL, Tumor Site: Type of Lesion: LUNG, KIDNEY) “active; positive”.
Regarding `CCCc1cc(=O)[nH]c(=S)[nH]1`, the carcinogen call by setting is: (Species: HAMSTER, Route: ORAL, Tumor Site: Type of Lesion: THYROID GLAND) “active; positive”; (Species: MOUSE, Route: ORAL, Tumor Site: Type of Lesion: PITUITARY GLAND, THYROID GLAND) “active; positive”; (Species: RAT, Route: ORAL, Tumor Site: Type of Lesion: THYROID GLAND) “active; positive”.
Take `O[C@@H]1[C@@H]2O[C@@H]2c2c(ccc3cc4ccc5ccccc5c4nc23)[C@H]1O`: the carcinogen call reads like this: (Species: MOUSE, Strain/Sex: CD-1/FEMALE, Route: INTRAPERITONEAL, Dose: 0, 28 NMOL (TOTAL DOSE) ADMINISTERED AS 1/7 OF DOSE WITHIN 24 HR AFTER BIRTH, 2/7 OF DOSE AT 8 D OLD, 4/7 OF DOSE AT 15, Tumor Site: Type of Lesion: LUNG: TUMOR) “active; positive”; (Species: MOUSE, Strain/Sex: CD-1/FEMALE, Route: INTRAPERITONEAL, Dose: 0, 70, 175 NMOL (TOTAL DOSE) ADMINISTERED AS 1/7 OF DOSE WITHIN 24 HR AFTER BIRTH, 2/7 OF DOSE AT 8 D OLD, 4/7 OF DOSE A, Dose: 0, 70, 175 NMOL (TOTAL DOSE) ADMINISTERED AS 1/7 OF DOSE WITHIN 24 HR AFTER BIRTH, 2/7 OF DOSE AT 8 D OLD, 4/7 OF DOSE A, Tumor Site: Type of Lesion: LIVER: TUMOR, LUNG: TUMOR) “active; positive”; (Species: MOUSE, Strain/Sex: CD-1/MALE, Route: INTRAPERITONEAL, Dose: 0, 28 NMOL (TOTAL DOSE) ADMINISTERED AS 1/7 OF DOSE WITHIN 24 HR AFTER BIRTH, 2/7 OF DOSE AT 8 D OLD, 4/7 OF DOSE AT 15, Tumor Site: Type of Lesion: LIVER: TUMOR, LUNG: TUMOR) “active; positive”; (Species: MOUSE, Strain/Sex: CD-1/MALE, Route: INTRAPERITONEAL, Dose: 0, 70, 175 NMOL (TOTAL DOSE) ADMINISTERED AS 1/7 OF DOSE WITHIN 24 HR AFTER BIRTH, 2/7 OF DOSE AT 8 D OLD, 4/7 OF DOSE A, Dose: 0, 70, 175 NMOL (TOTAL DOSE) ADMINISTERED AS 1/7 OF DOSE WITHIN 24 HR AFTER BIRTH, 2/7 OF DOSE AT 8 D OLD, 4/7 OF DOSE A, Tumor Site: Type of Lesion: LIVER: TUMOR, LUNG: TUMOR) “active; positive”.
With `Oc1c(Cl)cc(Cl)c(Cl)c1Cc1c(O)c(Cl)cc(Cl)c1Cl`, the carcinogen call is, setting by setting: (Species: RAT, Strain/Sex: F344/FEMALE, Route: ORAL, Dose: 0, 17, 50, 150 PPM IN DIET, Dose: 0, 17, 50, 150 PPM IN DIET) “inactive; negative”; (Species: RAT, Strain/Sex: F344/MALE, Route: ORAL, Dose: 0, 17, 50, 150 PPM IN DIET, Dose: 0, 17, 50, 150 PPM IN DIET) “inactive; negative”.
Take `CCCCCOC(=O)COc1cc(N2C(=O)C3=C(CCCC3)C2=O)c(F)cc1Cl`: the carcinogen call was “inactive; negative” (Species: Mouse, Strain/Sex: CD-1 (ICR)/Female (51/Group), Route: Oral, Dose: 0, 37.8, 368.1, 850.1 mg/kg/day of 94.7% flumiclorac pentyl in diet for 78 wk, study duration 78 wk, Dose: 0, 37.8, 368.1, 850.1 mg/kg/day of 94.7% flumiclorac pentyl in diet for 78 wk, study duration 78 wk); “inactive; negative” (Species: Mouse, Strain/Sex: CD-1 (ICR)/Male (51/Group), Route: Oral, Dose: 0, 31.5, 307.9, 731.4 mg/kg/day of 94.7% flumiclorac pentyl in diet for 78 wk, study duration 78 wk, Dose: 0, 31.5, 307.9, 731.4 mg/kg/day of 94.7% flumiclorac pentyl in diet for 78 wk, study duration 78 wk); “inactive; negative” (Species: Rat, Strain/Sex: Crj:CD(SD)/Female (50/Group), Route: Oral, Dose: 0, 4.3, 43.6, 443.8, 919.4 mg/kg/day of 94.4% flumiclorac pentyl in diet for 24 mo, study duration 24 mo, Dose: 0, 4.3, 43.6, 443.8, 919.4 mg/kg/day of 94.4% flumiclorac pentyl in diet for 24 mo, study duration 24 mo); “inactive; negative” (Species: Rat, Strain/Sex: Crj:CD(SD)/Male (50/Group), Route: Oral, Dose: 0, 3.5, 35.4, 360.4, 744.9 mg/kg/day of 94.4% flumiclorac pentyl in diet for 24 mo, study duration 24 mo, Dose: 0, 3.5, 35.4, 360.4, 744.9 mg/kg/day of 94.4% flumiclorac pentyl in diet for 24 mo, study duration 24 mo).
Regarding `Oc1ccc(O)c(-c2ccccc2)c1`, the carcinogen call runs as follows: (Species: MOUSE, Strain/Sex: CD-1/FEMALE, Route: DERMAL, Dose: 0, 10 MG IN DMSO 5 D/WK FOR 40 WK (STUDY DURATION: 40 WK)) “inactive; negative”; (Species: RAT, Strain/Sex: F344/FEMALE, Route: INTRAVESICULAR, Dose: 0, 1% IN 0.2 ML SALINE 2/WK FOR 5 WK (STUDY DURATION: 36 WK)) “inactive; negative”.
`NC(=O)N(CCF)N=O`: the carcinogen call by setting is: (Species: RAT, Strain/Sex: F344/MALE, Route: GAVAGE, Dose: 0, 1.75 MG/ML (TOTAL DOSE 0; 0.2 MMOL) IN 2 ML ETHYL ACETATE AND CORN OIL (1:2) 2/WK FOR 40 WK (STUDY DURATION: LIFETIME, Dose: 0, 1.75 MG/ML (TOTAL DOSE 0; 0.2 MMOL) IN 2 ML ETHYL ACETATE AND CORN OIL (1:2) 2/WK FOR 40 WK (STUDY DURATION: LIFETIME) “inactive; negative”; (Species: RAT, Strain/Sex: F344/MALE, Route: GAVAGE, Dose: 0, 1.75 MG/ML IN 0.2 ML ETHYL ACETATE AND CORN OIL 2/WK FOR 40 WK (STUDY DURATION: LIFESPAN), Tumor Site: Type of Lesion: FORESTOMACH: TUMOR) “active; positive”.

These data come from PubChem BioAssay AID1259411 (Chemical Carcinogenesis Research Information System (CCRIS), 2018).
